Source: patent US11318167B2, “Isolation of fusion-competent myoblasts and therapeutic applications thereof related to muscular dystrophy” (THE JOHNS HOPKINS UNIVERSITY, priority 2015, dated 2022)

B1: BMP4: BMP4 protein added to the culture media (protein, UniProt P12644 293-408, looked up)
Bone morphogenetic protein 4: SPKHHSQRARKKNKNCRRHSLYVDFSDVGWNDWIVAPPGYQAFYCHGDCPFPLADHLNSTNHAIVQTLVNSVNSSIPKACCVPTELSAISMLYLDEYDKVVLKNYQEMVVEGCGCR

Experiments:
[1] = system: MESOGENIN1::eGFP reporter human embryonic stem cell (hESC) line; assay: MESOGENIN1::eGFP reporter hESC line, pre-somite mesoderm induction (day 4); type: cell-based
Excerpt: The present invention was created through a number of discoveries. First, to harness the potential of hPSCs, a protocol to direct hPSCs into the skeletal muscle lineage was developed. As the somite is an intermediate stage between hPSCs and myogenic progenitor cells (Bentzinger et al, 2012; Dequeant and Pourquie, 2008) (FIG. 6A), a MESOGENIN1::eGFP reporter human embryonic stem cell (hESC) line was generated with the CRISPR/Cas9 system (Mali et al, 2013) (FIG. 6B-6D), because MESOGENIN1 is a genetic marker for the pre-somite mesoderm fate (Fior et al., 2012). […] For myogenic differentiation, hESCs/hiPSCs were rendered to single cells using Accutase® solution, and plated on gelatin for 10 minutes to remove MEFs. Non-adherent cells were collected and plated on Geltrex™ treated dishes, at a density of 1.5×10^5 cells per well of a 24-well plate, in the presence of MEF-conditioned N2 media containing 10 ng/ml of FGF-2 and 10 μM of Y-27632 (Cayman Chemical Co.) (day 0). The N2 medium, described in detail, contains DMEM/F12 powder, glucose, sodium bicarbonate, insulin, putrescine, progesterone, sodium selenite, and transferrin. From the next day (day 1), media was changed at every other day. BIO (30 nM-250 nM), lithium chloride (20 μM-20 mM), Kenpallone (1 μM-10 μM), SB 216763 (1 μM-10 μM), WNT-1 (10 ng/ml-100 ng/ml), WNT-3A (10 ng/ml-100 ng/ml), WNT-7A (10 ng/ml-100 ng/ml), SBE13 hydrochloride (0.1 nM-10 μM), and OTSSP167 hydrochloride (0.1 nM-10 nM) were tested during day 1 to day 4, as well as during day 4 to day 8. Final concentrations of CHIR99021 and DAPT treatment are 3 μM and 10 μM, respectively.

[2] = system: canonical WNT signaling pathway; assay: β-catenin translocation into the nucleus (canonical WNT signaling); type: cell-based, human
Excerpt: The present invention was created through a number of discoveries. First, to harness the potential of hPSCs, a protocol to direct hPSCs into the skeletal muscle lineage was developed. As the somite is an intermediate stage between hPSCs and myogenic progenitor cells (Bentzinger et al, 2012; Dequeant and Pourquie, 2008) (FIG. 6A), a MESOGENIN1::eGFP reporter human embryonic stem cell (hESC) line was generated with the CRISPR/Cas9 system (Mali et al, 2013) (FIG. 6B-6D), because MESOGENIN1 is a genetic marker for the pre-somite mesoderm fate (Fior et al., 2012).

[3] = system: control hiPSC-derived myoblasts; assay: Effect of DMD-myoblast conditioned media / BMP4 on control hiPSC-derived myoblasts; type: cell-based, human; conditions: BMP4 four concentrations, 7.5 μg/ml to 25 μg/ml; compared with inhibitive effect of DMD-myoblast CM
Experimental: FIG. 10A-10D is related to FIG. 5 and illustrates the effect of BMP4 on myoblasts and its pharmacological rescue. (A) Increased level of BMP4 expression in DMD-myoblasts than control myoblasts. (B-C) Inhibitive effect of conditioned media (CM, harvested after 24 hr incubation) from DMD-myoblasts on fusion index (B), and MYOG, and MYOD1 expression (C) of control hiPSC-derived myoblasts. […] (D) The decreased fusion index in DMD-CM-treated myoblasts was rescued by ‘dual SMAD inhibition’ compounds. (*, P≤0.05; ***, P≤0.001; ****, P≤0.0001, One-way ANOVA followed by Newman-Keuls test). n=3-5. All values represent means and s.d.
To find pharmacological rescue of the in vitro phenotypes, aberrant BMP and TGFβ signaling indicated by increased nuclear localization of pSMAD proteins in DMD-myoblasts (FIG. 3C-3D) was studied. Increased levels of BMP4 in the conditioned media (CM) of DMD-myoblasts (FIG. 10A) was detected. […] The effect of CM of DMD-myoblasts was reproduced by treatment with BMP4 protein in the culture media, which was reversed by treatment with ‘dual-SMAD’ inhibition compounds (FIG. 10D) (LDN+SB: LDN193189 and SB431542).

| Molecule | expression of MESOGENIN1::eGFP (cells out of total cells in a dish) ([1]; brief treatment 4 days after day 0, read at day 4, final concentration 3 μM) | expression of TBX6 (positive cells) ([1]; brief treatment 4 days, read at day 4) | expression of PAX3 ([1]; brief treatment 4 days, read at day 4, dose-dependent manner) | β-catenin translocation into the nucleus [2] | MYOG and MYOD1 expression of control hiPSC-derived myoblasts [3] | fusion index of control hiPSC-derived myoblasts [3] |
| --- | --- | --- | --- | --- | --- | --- |
| Cc1c[nH]c(-c2cnc(NCCNc3ccc(C#N)cn3)nc2-c2ccc(Cl)cc2Cl)n1.Cl [CHIR99021] | 80.8±11.3% | 67.4±10.4% | significantly increased expression | β-catenin translocation into the nucleus | – | – |
| B1 | – | – | – | – | recapitulated the effect of CM of DMD-myoblasts | recapitulated the effect of CM of DMD-myoblasts |
